Target: T1, α-synuclein fibrils (Homo sapiens, UniProt P37840)
T1 construct: GST (N, cleaved yes); made in house; host or cells: E. coli BL21
Test: Congo red binding assay of aged α-synuclein
Format: biochemical
Details: all tested concentrations; fibril control shifts from 490 to 508 nm
Description: CR is a dye with high affinity for amyloid fibrils. Congo red (20 μM) was prepared in PBS (pH 7.4) and filtered through a 0.45 μm filter. Samples of α-synuclein (5 μM), aged alone or with the compounds at different molar ratios, were mixed with Congo red (final concentration 5 μM), and the reaction samples were thoroughly mixed. The UV absorbance spectrum was recorded between 400 and 600 nm in a spectrophotometer (DU-800, Beckman-Coulter) using 10-mm quartz cuvettes (HellmaAnalytics-Germany). Congo red alone was used as blank.

SMILES: CC(C)=CCC[C@](C)(O[C@@H]1O[C@H](CO[C@@H]2O[C@H](CO)[C@@H](O)[C@H](O)[C@H]2O)[C@@H](O)[C@H](O)[C@H]1O)[C@H]1CC[C@]2(C)[C@@H]1[C@H](O)C[C@@H]1[C@@]3(C)CC[C@H](O[C@@H]4O[C@H](CO)[C@@H](O)[C@H](O)[C@H]4O[C@@H]4O[C@H](CO)[C@@H](O)[C@H](O)[C@H]4O)C(C)(C)[C@@H]3CC[C@]12C [Gn Rb1, ginsenoside Rb1]
- absorption maximum of Congo red bound to α-synuclein samples: ≤ 495 nm

Reference: patent US10488417B2, “Compounds for use as imaging agents” (United Arab Emirates University, priority 2014, dated 2019)
